Assay results from patent US20220056018A1, “SREBP INHIBITORS COMPRISING A THIOPHENE CENTRAL RING” (Capulus Therapeutics, LLC, priority 2019, published 2022).

Columns and labels:
[1] = Stability in human liver microsomes; format: in vitro ADME; settings: 37° C., NADPH
Method in brief: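 Compound from a 100 μM working solution was preincubated 10 min at 37 °C with human liver microsomes (added at 3.33 mg/mL) in 100 mM potassium phosphate. Incubation then ran 60 min at 37 °C with NADPH (2.85 mM cofactor solution), alongside a no-cofactor 60-min control and a 0-min sample. Parent compound was quantified by LC-MS/MS after acetonitrile quench for half-life.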

[2] = Stability in mouse liver microsomes; format: in vitro ADME
Method in brief: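 Mouse liver microsomes, run by the same procedure as for human microsomes: 100 μM working solution pre-incubated with microsomes in 100 mM potassium phosphate buffer for 10 min at 37° C, then incubated 60 min at 37° C with NADPH cofactor, plus a no-cofactor control. Remaining compound quantified by LC-MS/MS.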

MIAPACA2 = assay: Cancer cell growth inhibition; format: cell-based; settings: Homo sapiens, MIA PaCa-2; MIAPACA2 (pancreas), 72 hr treatment
Method in brief: (§1)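 SRB protein-stain readout after 72 hr treatment; 1 point/conc; DMSO stocks 10 mM–0.1 uM (six 10-fold steps), DMSO 0.1% final; IC50, GI50, IC10, TGI, LC50, IC90, GI90 derived where calculable.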

GRANTA-519 = assay: Cancer cell growth inhibition; format: cell-based; settings: Homo sapiens; GRANTA-519 (hematological), 72 hr treatment
Method in brief: as §1

SKNAS = assay: Cancer cell growth inhibition; format: cell-based; settings: Homo sapiens, SK-N-AS; SKNAS (brain), 72 hr treatment
Method in brief: as §1

CAKI1 = assay: Cancer cell growth inhibition; format: cell-based; settings: Homo sapiens, CAKI-1; CAKI1 (kidney), 72 hr treatment
Method in brief: as §1

PLCPRF5 = assay: Cancer cell growth inhibition; format: cell-based; settings: Homo sapiens, PLC-PRF-5; PLCPRF5 (liver), 72 hr treatment
Method in brief: as §1

U2OS = assay: Cancer cell growth inhibition; format: cell-based; settings: Homo sapiens; U2OS (bone), 72 hr treatment
Method in brief: as §1

A549 = assay: Cancer cell growth inhibition; format: cell-based; settings: Homo sapiens; A549 (lung), 72 hr treatment
Method in brief: as §1

SKHEP1 = assay: Cancer cell growth inhibition; format: cell-based; settings: Homo sapiens, SK-HEP1; SKHEP1 (liver), 72 hr treatment
Method in brief: as §1

DLD1 = assay: Cancer cell growth inhibition; format: cell-based; settings: Homo sapiens, DLD-1; DLD1 (colon), 72 hr treatment
Method in brief: as §1

KASUMI-1 = assay: Cancer cell growth inhibition; format: cell-based; settings: Homo sapiens; KASUMI-1 (hematological), 72 hr treatment
Method in brief: as §1

HT29 = assay: Cancer cell growth inhibition; format: cell-based; settings: Homo sapiens, HT-29; HT29 (colon), 72 hr treatment
Method in brief: as §1

Row | Structure (SMILES) | percent of compound remaining after 60 min in human liver microsomes [1] | percent parent remaining after 60 min in liver microsomes [2] | IC50 (MIAPACA2) [µM] | IC50 (GRANTA-519) [µM] | IC50 (SKNAS) [µM] | IC50 (CAKI1) [µM] | IC50 (PLCPRF5) [µM] | IC50 (U2OS) [µM] | IC50 (A549) [µM] | IC50 (SKHEP1) [µM] | IC50 (DLD1) [µM] | IC50 (KASUMI-1) [µM] | IC50 (HT29) [µM]
1 | CC(C)(CO)c1cc(-c2csc(-c3ccc(NS(C)(=O)=O)cc3Cl)c2)ccn1 [Compound I-8909, N-(3-chloro-4-(4-(2-(1-hydroxy-2-methylpropan-2-yl)pyridin-4-yl)thiophen-2-yl)phenyl)methanesulfonamide] | ++ (30.1-60 = ++) | +++ (>60.1 = +++) | > 10 | > 10 | > 10 | < 10 | < 10 | > 10 | < 10 | < 10 | < 10 | > 10 | < 10
2 | CC(C)(O)Cc1cc(-c2csc(-c3ccc(NS(C)(=O)=O)cc3Cl)c2)ccn1 [Compound I-9004, N-(3-chloro-4-(4-(2-(2-hydroxy-2-methylpropyl)pyridin-4-yl)thiophen-2-yl)phenyl)methanesulfonamide] | +++ (>60.1 = +++) | +++ (>60.1 = +++) | > 10 | > 10 | > 10 | < 10 | < 10 | > 10 | < 10 | < 10 | < 10 | > 10 | < 10
3 | CS(=O)(=O)Nc1ccc(-c2cc(-c3ccnc4c3OCCO4)cs2)c(Cl)c1 [Compound I-9017, N-(3-chloro-4-(4-(2,3-dihydro-[1,4]dioxino[2,3-b]pyridin-8-yl)thiophen-2-yl)phenyl)methanesulfonamide] | +++ (>60.1 = +++) | +++ (>60.1 = +++) | < 10 | < 10 | > 10 | < 10 | < 10 | < 10 | < 10 | < 10 | < 10 | < 10 | < 10
